What follows are molecules tested against T1, human MGL from HeLa cells (Homo sapiens, UniProt Q99685) (assay: In vitro MGL activity assay: [glycerol-1,3-3H]-oleyl glycerol cleavage by MGL from HeLa cells). Settings: 300 nM [Glycerol-1,3-3H]-oleyl glycerol, one hour.
T1 construct: combining endogenously expressed MGL from HeLa cells with test compounds; endogenous in cells; host or cells: HeLa cells / cell homogenates
T1 sequence (Q99685 1-303): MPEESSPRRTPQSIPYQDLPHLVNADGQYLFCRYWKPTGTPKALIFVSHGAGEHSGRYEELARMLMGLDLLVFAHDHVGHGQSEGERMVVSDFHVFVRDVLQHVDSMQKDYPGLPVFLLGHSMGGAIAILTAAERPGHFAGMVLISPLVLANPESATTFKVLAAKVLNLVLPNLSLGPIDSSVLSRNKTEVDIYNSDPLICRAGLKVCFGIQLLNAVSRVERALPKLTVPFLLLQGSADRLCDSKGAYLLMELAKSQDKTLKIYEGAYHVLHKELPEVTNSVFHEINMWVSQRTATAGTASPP
Assay type: biochemical
Source text: MGL is the predominant hydrolase in HeLa cells/cell homogenates.

IC50 [nM]	SMILES
106	C[C@H]1c2nn(C)c(-c3ccc(F)cc3F)c2CCN1C(=O)c1ccc2ncccc2c1 [Example 502, [(7S)-3-(2,4-Difluorophenyl)-2,7-dimethyl-5,7-dihydro-4H-pyrazolo[3,4-c]pyridin-6-yl]-(6-quinolyl)methanone]
522	Cc1nc(C(=O)N2CCc3c(nn(C)c3-c3cc(F)c(F)c(F)c3)[C@@H]2C)c2ncccn12 [Example 460, [(7S)-2,7-Dimethyl-3-(3,4,5-trifluorophenyl)-5,7-dihydro-4H-pyrazolo[3,4-c]pyridin-6-yl]-(6-methylimidazo[1,5-a]pyrimidin-8-yl)methanone]
81.2	C[C@H]1c2nn(C)c(-c3cccc4c3OC(F)(F)O4)c2CCN1C(=O)c1ccc2ncccc2c1 [Example 542, [(7S)-3-(2,2-Difluoro-1,3-benzodioxol-4-yl)-2,7-dimethyl-5,7-dihydro-4H-pyrazolo[3,4-c]pyridin-6-yl]-(6-quinolyl)methanone]
32.4	Cc1nc(C(=O)N2CCc3c(nn(C)c3-c3cc(F)c(F)c(F)c3)[C@@H]2C)c2cnn(C)c2n1 [Example 617, (S)-(1,6-Dimethyl-1H-pyrazolo[3,4-d]pyrimidin-4-yl)(2,7-dimethyl-3-(3,4,5-trifluorophenyl)-2,4,5,7-tetrahydro-6H-pyrazolo[3,4-c]pyridin-6-yl)methanone]
189	C[C@H]1c2nn(C)c(-c3cc(F)c(F)c(F)c3)c2CCN1C(=O)c1ccc2ncncc2c1 [Example 479, [(7S)-2,7-Dimethyl-3-(3,4,5-trifluorophenyl)-5,7-dihydro-4H-pyrazolo[3,4-c]pyridin-6-yl]-quinazolin-6-yl-methanone]
12.6	COc1cccn2ncc(C(=O)N3CCc4c(nn(C)c4-c4cc(F)c(F)c(F)c4)[C@@H]3C)c12 [Example 390, [(7S)-2,7-Dimethyl-3-(3,4,5-trifluorophenyl)-5,7-dihydro-4H-pyrazolo[3,4-c]pyridin-6-yl]-(4-methoxypyrazolo[1,5-a]pyridin-3-yl)methanone]
23.2	Cc1nc2cccnn2c1C(=O)N1CCc2c(nn(C)c2-c2cc(F)c(F)c(F)c2)[C@@H]1C [Example 455, [(7S)-2,7-Dimethyl-3-(3,4,5-trifluorophenyl)-5,7-dihydro-4H-pyrazolo[3,4-c]pyridin-6-yl]-(2-methylimidazo[1,2-b]pyridazin-3-yl)methanone]
252	C[C@H]1c2nn(C)c(-c3cc(F)c(F)c(F)c3)c2CCN1C(=O)c1cn(-c2ccccc2)cn1 [Example 601, [(7S)-2,7-Dimethyl-3-(3,4,5-trifluorophenyl)-5,7-dihydro-4H-pyrazolo[3,4-c]pyridin-6-yl]-(1-phenylimidazol-4-yl)methanone]
848	C[C@H]1c2nn(C)c(-c3cc(F)c(F)c(F)c3)c2CCN1C(=O)c1cn(C)nc1C1(F)CC1 [Example 348, [(7S)-2,7-Dimethyl-3-(3,4,5-trifluorophenyl)-5,7-dihydro-4H-pyrazolo[3,4-c]pyridin-6-yl]-[3-(1-fluorocyclopropyl)-1-methyl-pyrazol-4-yl]methanone]
22.6	COc1cc(Cl)cc(-c2c3c(nn2C)[C@H](C)N(C(=O)c2c(C)nc4ccc(F)cn24)CC3)c1 [Example 406, [(7S)-3-(3-Chloro-5-methoxy-phenyl)-2,7-dimethyl-5,7-dihydro-4H-pyrazolo[3,4-c]pyridin-6-yl]-(6-fluoro-2-methyl-imidazo[1,2-a]pyridin-3-yl)methanone]
199	Cc1cnc2c(C(=O)N3CCc4c(nn(C)c4-c4cc(F)c(F)c(F)c4)[C@@H]3C)cnn2c1 [Example 451, [(7S)-2,7-Dimethyl-3-(3,4,5-trifluorophenyl)-5,7-dihydro-4H-pyrazolo[3,4-c]pyridin-6-yl]-(6-methylpyrazolo[1,5-a]pyrimidin-3-yl)methanone]
58.6	C[C@H]1c2nn(C)c(-c3cccc(OC(F)(F)F)c3)c2CCN1C(=O)c1ccc2ncccc2c1 [Example 501, [(7S)-2,7-Dimethyl-3-[3-(trifluoromethoxy)phenyl]-5,7-dihydro-4H-pyrazolo[3,4-c]pyridin-6-yl]-(6-quinolyl)methanone]
140	Cc1cn2c(C(=O)N3CCc4c(nn(C)c4-c4cc(F)c(F)c(F)c4)[C@@H]3C)cccc2n1 [Example 394, [(7S)-2,7-Dimethyl-3-(3,4,5-trifluorophenyl)-5,7-dihydro-4H-pyrazolo[3,4-c]pyridin-6-yl]-(2-methylimidazo[1,2-a]pyridin-5-yl)methanone]
602	COc1ccc(-c2c3c(nn2C)[C@H](C)N(C(=O)c2ccc4ncccc4c2)CC3)cn1 [Example 525, [(7S)-3-(6-Methoxy-3-pyridyl)-2,7-dimethyl-5,7-dihydro-4H-pyrazolo[3,4-c]pyridin-6-yl]-(6-quinolyl)methanone]
335	COc1nccc(C(=O)N2CCc3c(nn(C)c3-c3cccc(C(C)(F)F)c3)[C@@H]2C)c1C [Example 594, [(7S)-3-[3-(1,1-Difluoroethyl)phenyl]-2,7-dimethyl-5,7-dihydro-4H-pyrazolo[3,4-c]pyridin-6-yl]-(2-methoxy-3-methyl-4-pyridyl)methanone]
27.4	C[C@H]1c2nn(C)c(-c3cc(F)c(F)c(F)c3)c2CCN1C(=O)c1ccc2c(c1)CCOC2 [Example 578, [(7S)-2,7-Dimethyl-3-(3,4,5-trifluorophenyl)-5,7-dihydro-4H-pyrazolo[3,4-c]pyridin-6-yl]-isochroman-6-yl-methanone]

Same assay, conditions: 300 nM [Glycerol-1,3-3H]-oleyl glycerol, one hour incubation

SMILES	IC50 [nM]
CC1c2nn(C)c(-c3cc(F)cc(F)c3)c2CCN1C(=O)c1ccc2ncccc2c1Cl (stereo not drawn) [Example 163, (5-Chloroquinolin-6-yl)(3-(3,5-difluorophenyl)-2,7-dimethyl-2,4,5,7-tetrahydro-6H-pyrazolo[3,4-c]pyridin-6-yl)methanone]	11.8
Cn1nc2c(c1-c1ccccc1)CCN(C(=O)c1cccc3ncnn13)C2 [Example 85, [1,2,4]Triazolo[1,5-a]pyridin-5-yl(2-methyl-3-phenyl-2,4,5,7-tetrahydro-6H-pyrazolo[3,4-c]pyridin-6-yl)methanone]	7140
CC1c2nn(C)c(-c3cccc(Cl)c3)c2CCN1C(=O)c1cnc2ccoc2c1 (racemic) [Example 126, (3-(3-Chlorophenyl)-2,7-dimethyl-2,4,5,7-tetrahydro-6H-pyrazolo[3,4-c]pyridin-6-yl)(furo[3,2-b]pyridin-6-yl)methanone]	130
Cn1nc2c(c1-c1ccccc1)CCN(C(=O)c1nc3ccccc3o1)C2 [Example 57, Benzo[d]oxazol-2-yl(2-methyl-3-phenyl-2,4,5,7-tetrahydro-6H-pyrazolo[3,4-c]pyridin-6-yl)methanone]	1680
Cc1ccc(-c2c3c(nn2C)CN(C(=O)c2noc4ccccc24)CC3)s1 [Example 102, Benzo[d]isoxazol-3-yl(2-methyl-3-(5-methylthiophen-2-yl)-2,4,5,7-tetrahydro-6H-pyrazolo[3,4-c]pyridin-6-yl)methanone]	158
Cn1nc2c(c1-c1ccccc1)CCN(C(=O)c1cnc3ccccc3c1)C2 [Example 95, (2-Methyl-3-phenyl-2,4,5,7-tetrahydro-6H-pyrazolo[3,4-c]pyridin-6-yl)(quinolin-3-yl)methanone]	984
C[C@H]1c2nn(C)c(-c3cc(F)c(F)c(F)c3)c2CCN1C(=O)c1cnn(C)c1C(F)(F)F [Example 198, (S)-(2,7-Dimethyl-3-(3,4,5-trifluorophenyl)-2,4,5,7-tetrahydro-6H-pyrazolo[3,4-c]pyridin-6-yl)(1-methyl-5-(trifluoromethyl)-1H-pyrazol-4-yl)methanone]	14
Cn1nc2c(c1-c1ccccc1)CCN(C(=O)c1cnn3ccccc13)C2 [Example 74, (2-Methyl-3-phenyl-2,4,5,7-tetrahydro-6H-pyrazolo[3,4-c]pyridin-6-yl)(pyrazolo[1,5-a]pyridin-3-yl)methanone]	613
CN1CCOc2cc(C(=O)N3CCc4c(nn(C)c4-c4ccccc4)C3)ccc21 [Example 27, (4-Methyl-3,4-dihydro-2H-benzo[b][1,4]oxazin-7-yl)(2-methyl-3-phenyl-2,4,5,7-tetrahydro-6H-pyrazolo[3,4-c]pyridin-6-yl)methanone]	290
Cn1nc2c(c1-c1ccccc1)CCN(C(=O)c1coc3ccccc13)C2 [Example 36, Benzofuran-3-yl(2-methyl-3-phenyl-2,4,5,7-tetrahydro-6H-pyrazolo[3,4-c]pyridin-6-yl)methanone]	750
Cn1nc2c(c1-c1cccc(OC(F)F)c1)CCN(C(=O)c1ccc3ncccc3c1)C2 [Example 98, (3-(3-(Difluoromethoxy)phenyl)-2-methyl-2,4,5,7-tetrahydro-6H-pyrazolo[3,4-c]pyridin-6-yl)(quinolin-6-yl)methanone]	973
Cn1nc2c(c1-c1ccccc1)CCN(C(=O)c1ccc3ocnc3c1)C2 [Example 58, Benzo[d]oxazol-5-yl(2-methyl-3-phenyl-2,4,5,7-tetrahydro-6H-pyrazolo[3,4-c]pyridin-6-yl)methanone]	4180

Continued, values first:

IC50 [nM]	SMILES
67.3	C[C@H]1c2nn(C)c(-c3cc(F)c(F)c(F)c3)c2CCN1C(=O)c1cccc(-n2cc(F)cn2)c1 [Example 275, [(7S)-2,7-Dimethyl-3-(3,4,5-trifluorophenyl)-5,7-dihydro-4H-pyrazolo[3,4-c]pyridin-6-yl]-[3-(4-fluoropyrazol-1-yl)phenyl]methanone]
67.5	COc1cncc(C(=O)N2CCc3c(nn(C)c3-c3cc(F)c(F)c(F)c3)[C@@H]2C)c1 [Example 203, (S)-(2,7-Dimethyl-3-(3,4,5-trifluorophenyl)-2,4,5,7-tetrahydro-6H-pyrazolo[3,4-c]pyridin-6-yl)(5-methoxypyridin-3-yl)methanone]

Reference: patent US11820766B2, “Monoacylglycerol lipase modulators” (Janssen Pharmaceutica NV, priority 2018, dated 2023)
